The target of one experiment is hNav1.7 (Homo sapiens (Human), UniProt Q15858). The experiment in a line: Tritiated sulfonamide competitive binding to membranes from cells expressing hNav1.7 and the β1 subunit.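 Note: Filter-bound radioactivity counted by liquid scintillation, nonspecific binding defined with excess unlabelled ligand, IC50 fitted to percent inhibition of specific binding.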
Another experiment addresses NaV1.7 (Homo sapiens (Human), UniProt Q15858). As to the kind of experiment: Patch voltage clamp electrophysiological assay (EP), NaV1.7. It counts as cell-based. Particulars: HEK-293 cells stably expressing human NaV1.7 with β1 subunit, whole-cell patch clamp, holding −60 mV. The method, then:
Electrophysiological Assay (EP) (In vitro Assay)
Control sodium currents were measured in 0.5% DMSO.
Series resistance compensation was applied (60-80%).
On the technique in general: In patch-clamp work, channel activity is measured electrically.

The next experiment deals with NaV1.5 (Homo sapiens (Human), UniProt Q14524). As to the kind of experiment: Patch voltage clamp electrophysiological assay (EP), NaV1.5.
Setting [1] is: read-out: Ligand Binding Assay, 100 pM [3H]compound, membranes with hNav1.7 and β1 subunit, 18 h, room temperature.

Structures are written as SMILES. Where a name gives a salt, the structure may show the parent alone. Read-outs that look alike come from different tables or passages of the source.

Sequence of NaV1.7 (Q15858 other isoform, or with tags, fused parts or gaps): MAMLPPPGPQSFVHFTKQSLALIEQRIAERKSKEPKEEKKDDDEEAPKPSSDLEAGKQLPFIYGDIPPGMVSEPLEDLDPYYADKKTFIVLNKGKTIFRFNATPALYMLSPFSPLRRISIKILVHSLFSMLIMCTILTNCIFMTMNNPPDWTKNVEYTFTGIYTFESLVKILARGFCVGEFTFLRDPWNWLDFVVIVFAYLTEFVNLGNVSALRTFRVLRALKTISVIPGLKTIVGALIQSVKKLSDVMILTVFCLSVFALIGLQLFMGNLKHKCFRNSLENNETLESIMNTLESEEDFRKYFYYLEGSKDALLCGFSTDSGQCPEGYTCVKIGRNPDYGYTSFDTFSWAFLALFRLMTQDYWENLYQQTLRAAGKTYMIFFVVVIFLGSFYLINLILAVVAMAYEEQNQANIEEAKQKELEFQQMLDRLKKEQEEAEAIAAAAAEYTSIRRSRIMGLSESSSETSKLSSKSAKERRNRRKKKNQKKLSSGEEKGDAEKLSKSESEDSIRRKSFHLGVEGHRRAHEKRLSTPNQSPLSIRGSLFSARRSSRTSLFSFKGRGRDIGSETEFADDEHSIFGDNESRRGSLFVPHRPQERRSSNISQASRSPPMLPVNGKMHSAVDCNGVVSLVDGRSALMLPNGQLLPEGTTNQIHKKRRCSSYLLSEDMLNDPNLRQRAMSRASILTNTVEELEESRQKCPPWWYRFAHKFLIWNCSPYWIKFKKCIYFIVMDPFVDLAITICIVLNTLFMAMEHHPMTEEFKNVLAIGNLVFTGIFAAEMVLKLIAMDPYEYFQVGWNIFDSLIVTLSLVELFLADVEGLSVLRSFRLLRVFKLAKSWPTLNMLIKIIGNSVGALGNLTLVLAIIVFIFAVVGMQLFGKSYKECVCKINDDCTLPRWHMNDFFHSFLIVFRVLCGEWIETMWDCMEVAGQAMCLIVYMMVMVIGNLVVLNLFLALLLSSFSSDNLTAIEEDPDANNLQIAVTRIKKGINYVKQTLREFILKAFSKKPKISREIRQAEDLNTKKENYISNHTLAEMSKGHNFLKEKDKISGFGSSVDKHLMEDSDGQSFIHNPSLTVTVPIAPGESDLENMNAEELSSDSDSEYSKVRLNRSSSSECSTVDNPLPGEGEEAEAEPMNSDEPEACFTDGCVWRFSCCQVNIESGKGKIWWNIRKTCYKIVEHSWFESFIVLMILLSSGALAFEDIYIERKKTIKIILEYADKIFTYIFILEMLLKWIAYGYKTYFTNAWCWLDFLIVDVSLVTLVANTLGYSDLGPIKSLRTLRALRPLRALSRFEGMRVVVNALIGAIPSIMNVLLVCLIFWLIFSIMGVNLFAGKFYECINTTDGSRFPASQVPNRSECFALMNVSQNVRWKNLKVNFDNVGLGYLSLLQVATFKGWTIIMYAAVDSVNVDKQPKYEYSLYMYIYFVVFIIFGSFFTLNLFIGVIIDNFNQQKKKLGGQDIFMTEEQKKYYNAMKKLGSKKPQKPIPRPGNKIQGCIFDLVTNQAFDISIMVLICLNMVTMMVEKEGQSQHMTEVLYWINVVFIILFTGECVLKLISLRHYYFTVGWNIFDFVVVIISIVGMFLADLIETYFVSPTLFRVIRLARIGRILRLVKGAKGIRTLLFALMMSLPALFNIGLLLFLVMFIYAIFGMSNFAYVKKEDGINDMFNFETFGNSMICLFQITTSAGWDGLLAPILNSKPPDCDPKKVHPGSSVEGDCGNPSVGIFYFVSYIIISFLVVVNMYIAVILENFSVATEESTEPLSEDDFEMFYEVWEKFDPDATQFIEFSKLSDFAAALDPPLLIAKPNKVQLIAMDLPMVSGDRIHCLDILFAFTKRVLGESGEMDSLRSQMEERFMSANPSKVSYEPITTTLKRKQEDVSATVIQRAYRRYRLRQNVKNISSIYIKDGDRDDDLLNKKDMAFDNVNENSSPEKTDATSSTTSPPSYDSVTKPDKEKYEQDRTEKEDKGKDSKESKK
Sequence of NaV1.7 (Q07699 19-218 partner): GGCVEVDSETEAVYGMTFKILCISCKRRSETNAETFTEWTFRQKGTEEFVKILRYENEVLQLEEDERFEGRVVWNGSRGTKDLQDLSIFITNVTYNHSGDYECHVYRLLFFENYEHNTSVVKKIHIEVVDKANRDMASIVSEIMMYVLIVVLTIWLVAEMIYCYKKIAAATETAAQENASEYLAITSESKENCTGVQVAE
Sequence of hNav1.7 (Q15858 other isoform, or with tags, fused parts or gaps): as the sequence (Q15858 other isoform, or with tags, fused parts or gaps) above
Sequence of hNav1.7 (Q07699 19-218 partner): as the sequence (Q07699 19-218 partner) above
Sequence of NaV1.5 (Q14524 whole entry): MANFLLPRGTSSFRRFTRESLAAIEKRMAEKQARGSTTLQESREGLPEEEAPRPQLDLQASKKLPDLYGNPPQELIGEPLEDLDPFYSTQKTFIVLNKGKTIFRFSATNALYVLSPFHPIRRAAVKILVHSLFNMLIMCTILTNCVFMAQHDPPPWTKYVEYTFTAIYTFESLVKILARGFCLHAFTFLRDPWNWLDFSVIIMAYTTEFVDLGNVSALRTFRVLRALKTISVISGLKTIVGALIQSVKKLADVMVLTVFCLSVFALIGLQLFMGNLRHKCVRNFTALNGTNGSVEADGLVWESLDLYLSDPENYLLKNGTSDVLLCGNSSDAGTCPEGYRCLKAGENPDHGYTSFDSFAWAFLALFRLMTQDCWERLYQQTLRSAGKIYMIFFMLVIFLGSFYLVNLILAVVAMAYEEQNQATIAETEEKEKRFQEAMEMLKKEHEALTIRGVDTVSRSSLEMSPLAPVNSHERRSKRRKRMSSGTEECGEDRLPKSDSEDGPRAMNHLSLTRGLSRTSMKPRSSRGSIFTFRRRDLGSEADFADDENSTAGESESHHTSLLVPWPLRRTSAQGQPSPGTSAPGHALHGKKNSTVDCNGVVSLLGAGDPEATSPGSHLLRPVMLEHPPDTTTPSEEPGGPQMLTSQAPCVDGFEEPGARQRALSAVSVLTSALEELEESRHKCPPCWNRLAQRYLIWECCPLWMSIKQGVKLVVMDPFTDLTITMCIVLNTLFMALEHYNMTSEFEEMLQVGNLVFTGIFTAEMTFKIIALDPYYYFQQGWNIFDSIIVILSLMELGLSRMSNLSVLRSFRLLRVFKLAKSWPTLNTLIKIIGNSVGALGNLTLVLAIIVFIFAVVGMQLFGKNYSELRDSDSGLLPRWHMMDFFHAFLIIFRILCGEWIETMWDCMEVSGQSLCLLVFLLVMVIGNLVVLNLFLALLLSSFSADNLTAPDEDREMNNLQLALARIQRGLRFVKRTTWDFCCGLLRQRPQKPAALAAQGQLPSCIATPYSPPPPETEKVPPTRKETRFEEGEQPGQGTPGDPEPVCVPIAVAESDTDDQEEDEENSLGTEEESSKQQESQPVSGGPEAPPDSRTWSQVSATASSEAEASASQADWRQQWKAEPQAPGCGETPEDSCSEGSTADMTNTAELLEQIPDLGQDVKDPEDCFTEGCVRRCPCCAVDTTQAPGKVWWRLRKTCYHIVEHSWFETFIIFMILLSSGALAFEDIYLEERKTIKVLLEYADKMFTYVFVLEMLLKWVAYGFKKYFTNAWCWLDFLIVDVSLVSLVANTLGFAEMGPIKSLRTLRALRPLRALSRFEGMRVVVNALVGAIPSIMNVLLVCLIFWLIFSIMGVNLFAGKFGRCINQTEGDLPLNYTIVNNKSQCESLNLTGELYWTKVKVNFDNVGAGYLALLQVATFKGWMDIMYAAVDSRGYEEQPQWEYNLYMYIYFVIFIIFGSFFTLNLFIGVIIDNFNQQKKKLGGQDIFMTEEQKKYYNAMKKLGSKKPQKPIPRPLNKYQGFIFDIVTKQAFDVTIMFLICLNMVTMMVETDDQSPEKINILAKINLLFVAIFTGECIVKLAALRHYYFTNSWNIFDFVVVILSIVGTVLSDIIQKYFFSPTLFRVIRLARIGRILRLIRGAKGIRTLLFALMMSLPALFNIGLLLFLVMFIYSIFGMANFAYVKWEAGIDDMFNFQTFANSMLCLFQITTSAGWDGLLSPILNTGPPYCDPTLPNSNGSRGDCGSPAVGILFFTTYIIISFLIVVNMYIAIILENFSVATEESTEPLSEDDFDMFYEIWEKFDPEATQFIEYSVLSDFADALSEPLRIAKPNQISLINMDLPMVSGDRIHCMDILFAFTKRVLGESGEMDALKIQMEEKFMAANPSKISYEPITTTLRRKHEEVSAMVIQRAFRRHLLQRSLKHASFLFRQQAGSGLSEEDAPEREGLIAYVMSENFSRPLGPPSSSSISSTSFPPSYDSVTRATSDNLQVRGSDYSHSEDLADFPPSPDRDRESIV
Description for NaV1.5: The following patch voltage clamp electrophysiology studies were performed on representative compounds of the invention using human embryonic kidney cells (HEK), permanently transfected with an expression vector containing the full-length cDNA coding for the desired human sodium channel α-subunit, grown in culture media containing 10% FBS, 1% PSG, and 0.5 mg/mL G418 at 37° C. with 5% CO2. […] The β1 subunit was coexpressed in both the NaV1.7 and NaV1.5 cell lines.
Sodium currents were measured rising the patch clamp technique in the whole-cell configuration using either a PatchXpress automated voltage clamp or manually using an Axopatch 200B (Axon Instruments) or Model 2400 (A-M systems) amplifier. […] The pipette was filled with a solution comprised of: 5 mM NaCl, 10 mM CsCl, 120 mM CsF, 0.1 mM CaCl2, 2 mM MgCl2, 10 mM HEPES, 10 mM EGTA; and adjusted to pH 7.2 with CsOH. The external solution had the following composition: 140 mM NaCl, 5 mM KCl, 2 mM CaCl2, 1 mM MgCl2, 10 mM HEPES; and adjusted to pH 7.4 with NaOH. In some studies, the external sodium was reduced by equimolar replacement with choline. Osmolality in the CsF internal and NaCl external solutions was adjusted to 300 mOsm/kg and 310 mOsm/kg with glucose, respectively. All recordings were performed at ambient temperature in a bath chamber with a volume of 150 μL. Control sodium currents were measured in 0.5% DMSO. Controls and representative compounds of the invention were applied to the recording chamber through a 4-pinch or 8-pinch valve bath perfusion system manufactured by ALA Scientific Instruments.
Currents were recorded at 40 kHz sampling frequency, filtered at 5 Hz, and stored using a Digidata-1322A analogue/digital interface with the pClamp software (Axon instruments). Series resistance compensation was applied (60-80%). […] All statistics in this study are given as mean±SD.
The membrane potential was maintained at a voltage where reactivation of the channel is complete (which was −60 mV for both NaV1.7 and NaV1.5). The voltage is then stepped back to a very negative (Vhold=150 mV) voltage for 20 ms and then a test poise is applied to quantify the compound block. The 20 ms brief repolarization was long enough for compound-free channels to completely recover from fast inactivation, but the compound-bound channels recovered more slowly such that negligible recovery could occur during this interval. The percent decrease in sodium current following wash-on of compound was taken as the percent block of sodium channels.

As for `COC[C@@H](c1cc(Cl)cc(Cl)c1)N1CCC(COc2cc(F)c(C(=O)NS(=O)(=O)C3CC3)cc2C2CC2)CC1` (single isomer, unassigned) [Example 164], the IC50 was determined as 4.3 nM at hNav1.7 (setting [1]) and 3.3 nM on NaV1.7.

`COC[C@H](c1cc(Cl)cc(Cl)c1)N1CCC(COc2cc(F)c(C(=O)NS(=O)(=O)N3CCC3)cc2C2CC2)CC1` (single isomer, unassigned) [Example 167] returned an IC50 on NaV1.7 of 4.2 nM.

Turning to `O=C(NS(=O)(=O)C1CC1)c1cc(C2CC2)c(O[C@@H]2CCCN(Cc3cccc(Cl)c3)C2)cc1F` [Example 27, (R)-4-((1-(3-chlorobenzyl)piperidin-3-yl)oxy)-5-cyclopropyl-N-(cyclopropylsulfonyl)-2-fluorobenzamide], the results for the IC50 on NaV1.5 and at hNav1.7 were 169 nM and 3.6 nM, respectively.

Turning to `O=C(NS(=O)(=O)C1CC1)c1cc(C2CC2)c(CN2[C@@H]3CC[C@H]2C[C@@H](Oc2cc(Cl)cc(Cl)c2)C3)cc1F` [Example 475, 5-cyclopropyl-N-(cyclopropylsulfonyl)-4-(((1R,3r,5S)-3-(3,5-dichlorophenoxy)-8-azabicyclo[3.2.1]octan-8-yl)methyl)-2-fluorobenzamide hydrochloride], on NaV1.5, the IC50 is 814 nM.

On to `COC[C@@H](c1cc(Cl)cc(Cl)c1)N1CCC(COc2cc(F)c(C(=O)NS(C)(=O)=O)cc2C2CC2)CC1` (single isomer, unassigned) [Example 162], for which the IC50 stood at 3.9 nM on hNav1.7 (setting [1]) and 2.8 nM on NaV1.7.

On to `COc1ccc(CN2CCC[C@@H](Oc3cc(F)c(C(=O)NS(C)(=O)=O)cc3C3CC3)C2)c(C)c1` [Example 434, trifluoroacetic acid salt], for which the IC50 was 5 nM at hNav1.7 (setting [1]) and 12.8 nM against NaV1.7.

Take `CC(C)(c1cc(Cl)cc(Cl)c1)N1CCC(COc2cc(F)c(C(=O)NS(C)(=O)=O)cc2C2CC2)CC1` [Example 209]: the IC50 at hNav1.7 (setting [1]) was 1.7 nM; against NaV1.7 it was 15.8 nM.

For `CS(=O)(=O)NC(=O)c1cc(C2CC2)c(OCC2CCN(Cc3cc(F)cc(Cl)c3)CC2)cc1F` [Example 268, 4-((1-(3-Chloro-5-fluorobenzyl)piperidin-4-yl)methoxy)-5-cyclopropyl-2-fluoro-N-(methylsulfonyl)benzamide], the IC50 turned out to be 6 nM on hNav1.7 (setting [1]) and 2.8 nM on NaV1.7.

As for `O=C(NS(=O)(=O)N1CCC1)c1cc(C2CC2)c(O[C@H]2CCCN(Cc3ccccc3)C2)cc1F` [Example 2, (S)—N-(azetidin-1-ylsulfonyl)-4-((1-benzylpiperidin-3-yl)oxy)-5-cyclopropyl-2-fluorobenzamide], the IC50 is 4120 nM at hNav1.7 (setting [1]) and 1080 nM against NaV1.7.

In the case of `CS(=O)(=O)NC(=O)c1cc(C2CC2)c(O[C@@H]2CCCN(Cc3ccc(C(F)(F)F)c(Cl)c3)C2)cc1F` [Example 433, (R)-4-((1-(3-chloro-4-(trifluoromethyl)benzyl)piperidin-3-yl)oxy)-5-cyclopropyl-2-fluoro-N-(methylsulfonyl)benzamide, trifluoroacetic acid salt], the IC50 on hNav1.7 (setting [1]) came to 6.2 nM.

Take `COC[C@@H](c1ccccc1)N1CCC(COc2cc(F)c(C(=O)NS(C)(=O)=O)cc2C2CC2)CC1` [Example 222, (R)-5-cyclopropyl-2-fluoro-4-((1-(2-methoxy-1-phenylethyl)piperidin-4-yl)methoxy)-N-(methylsulfonyl)benzamide]: the IC50 at hNav1.7 (setting [1]) was found to be 160 nM.

`CS(=O)(=O)NC(=O)c1cc(C2CC2)c(O[C@@H]2CCCN(c3ccc(C(F)(F)F)cn3)C2)cc1F` [Example 490, (R)-5-cyclopropyl-2-fluoro-N-(methylsulfonyl)-4-((1-(5-trifluoromethyl)pyridin-2-yl)piperidin-3-yl)oxy)benzamide, trifluoroacetic acid salt]: the IC50 at hNav1.7 (setting [1]) is 42.3 nM.

Turning to `CS(=O)(=O)NC(=O)c1cc(Cl)c(OCC2CCN(Cc3cc(Cl)cc(OC(F)(F)F)c3)CC2)cc1F` [Example 406, 5-chloro-4-((1-(3-chloro-5-(trifluoromethoxy)benzyl)piperidin-4-yl)methoxy)-2-fluoro-N-(methylsulfonyl)benzamide, trifluoroacetic acid salt], the IC50 at hNav1.7 (setting [1]) was 17.6 nM.

In the case of `C[C@H](c1ccc(F)cc1Cl)N1C[C@H](Oc2cc(F)c(C(=O)NS(C)(=O)=O)cc2C2CC2)CC(C)(C)C1` [Example 452, 4-(((R)-1-((R)-1-(2-chloro-4-fluorophenyl)ethyl)-5,5-dimethylpiperidin-3-yl)oxy)-5-cyclopropyl-2-fluoro-N-(methylsulfonyl)benzamide, trifluoroacetic acid salt], the IC50 at hNav1.7 (setting [1]) worked out at 43.2 nM.

As for `C[C@H](c1ccc(Cl)c(Cl)c1)N1CCC(COc2cc(F)c(C(=O)NS(C)(=O)=O)cc2C2CC2)CC1` (single isomer, unassigned) [Example 214], the IC50 at hNav1.7 (setting [1]) amounted to 3.1 nM.

For the compound `CS(=O)(=O)NC(=O)c1cc(C2CC2)c(OCC2CN(Cc3ccccc3)C2)cc1F` [Example 74, -((1-benzylazetidin-3-yl)methoxy)-5-cyclopropyl-2-fluoro-N-(methylsulfonyl)benzamide], the IC50 at hNav1.7 (setting [1]) is 3600 nM.

On to `CS(=O)(=O)NC(=O)c1cc(C2CC2)c(OCC2CN(Cc3cccc(F)c3)C2)cc1F` [Example 73, 5-cyclopropyl-2-fluoro-4-((1-(3-fluorobenzyl)azetidin-3-yl)methoxy)-N-(methylsulfonyl)benzamide], for which the IC50 at hNav1.7 (setting [1]) turned out to be 1300 nM.

As to `O=C(NS(=O)(=O)C1CC1)c1cc(C2CC2)c(OCC2CCN(S(=O)(=O)c3ccc(Br)c(Cl)c3)CC2)cc1F` [Example 391, 4-((1-((4-bromo-3-chlorophenyl)sulfonyl)piperidin-4-yl)methoxy)-5-cyclopropyl-N-(cyclopropylsulfonyl)-2-fluorobenzamide], the IC50 on hNav1.7 (setting [1]) was found to be 10.1 nM.

As for `O=C(NS(=O)(=O)C1CC1)c1cc(C2CC2)c(CN2[C@@H]3CC[C@H]2C[C@@H](Oc2cc(C(F)(F)F)c(Cl)cn2)C3)cc1F` [Example 551, 4-(((1R,3r,5S)-3-((5-chloro-4-(trifluoromethyl)pyridin-2-yl)oxy)-8-azabicyclo[3.2.1]octan-8-yl)methyl)-5-cyclopropyl-N-(cyclopropylsulfonyl)-2-fluorobenzamide, trifluoroacetic acid salt], the IC50 on hNav1.7 (setting [1]) came to 7.5 nM.

Turning to `CCS(=O)(=O)NC(=O)c1cc(C2CC2)c(OCC2(C)CN(C(c3ccccc3)c3ccccc3)C2)cc1F` [Example 69, 4-((1-benzhydryl-3-methylazetidin-3-yl)methoxy)-5-cyclopropyl-N-(ethylsulfonyl)-2-fluorobenzamide], the IC50 at hNav1.7 (setting [1]) worked out at 6.1 nM.

Regarding `CS(=O)(=O)NC(=O)c1cc(C2CC2)c(OCC2CN(C(=O)c3cc(Cl)cc(Cl)c3)C2)cc1F` [Example 134, 5-Cyclopropyl-4-((1-(3,5-dichlorobenzoyl)azetidin-3-yl)methoxy)-2-fluoro-N-(methylsulfonyl)benzamide], the IC50 on hNav1.7 (setting [1]) is 346 nM.

On to `CS(=O)(=O)NC(=O)c1cc(C2CC2)c(O[C@@H]2CCCN(Cc3cccc4c3CNC4)C2)cc1F` [Example 14, (R)-5-cyclopropyl-2-fluoro-4-((1-(isoindolin-4-ylmethyl)piperidin-3-yl)oxy)-N-(methylsulfonyl)benzamide], for which the IC50 at hNav1.7 turned out to be 318 nM.

As for `COc1cc(OC(F)(F)F)ccc1CN1CCC[C@@H](Oc2cc(F)c(C(=O)NS(C)(=O)=O)cc2C2CC2)C1` [Example 438, (R)-5-cyclopropyl-2-fluoro-4-((1-(2-methoxy-4-(trifluoromethoxy)benzyl)piperidin-3-yl)oxy)-N-(methylsulfonyl)benzamide, trifluoroacetic acid salt], the IC50 at hNav1.7 (setting [1]) came out at 9.5 nM.

On to `O=C(NS(=O)(=O)N1CCC1)c1cc(C2CC2)c(CN2CCC[C@H](Oc3cc(Cl)cc(Cl)c3)C2)cc1F` [Example 54, (S)—N-(azetidin-1-ylsulfonyl)-5-cyclopropyl-4-((3-(3,5-dichlorophenoxy)piperidin-1-yl)methyl)-2-fluorobenzamide, acetic acid salt], for which the IC50 on hNav1.7 (setting [1]) was determined as 22 nM.

Take `CS(=O)(=O)NC(=O)c1cc(C2CC2)c(OC[C@@H]2CCCN(Cc3ccc(F)cc3Cl)C2)cc1F` [Example 332, (R)-4-((1-(2-chloro-4-fluorobenzyl)piperidin-3-yl)methoxy)-5-cyclopropyl-2-fluoro-N-(methylsulfonyl)benzamide]: at hNav1.7 (setting [1]), the IC50 came out at 35.2 nM.

At hNav1.7, `O=C(NS(=O)(=O)C1CC1)c1cc(C2CC2)c(CN2CCC(Oc3ccc(Cl)c(C(F)(F)F)c3)CC2)cc1F` [Example 520, 4-((4-(4-chloro-3-(trifluoromethyl)phenoxy)piperidin-1-yl)methyl)-5-cyclopropyl-N-(cyclopropylsulfonyl)-2-fluorobenzamide, trifluoroacetic acid salt] showed an IC50 of 7.3 nM.

Consider `C[C@@H](c1ccc(Cl)c(Cl)c1)N1CCC(C)(COc2cc(F)c(C(=O)NS(C)(=O)=O)cc2C2CC2)CC1` (single isomer, unassigned) [Example 219], for which the IC50 at hNav1.7 (setting [1]) amounted to 8.3 nM.

`CC1(COc2cc(F)c(C(=O)NS(C)(=O)=O)cc2C2CC2)CCN(C(=O)c2cc(Cl)c(Cl)cc2F)CC1` [Example 577, 5-cyclopropyl-4-((1-(4,5-dichloro-2-fluorobenzoyl)-4-methylpiperidin-4-yl)methoxy)-2-fluoro-N-(methylsulfonyl)benzamide]: the IC50 on hNav1.7 (setting [1]) worked out at 40 nM.

Take `CS(=O)(=O)NC(=O)c1cc(C2CC2)c(OCC2CCN(Cc3ccc(C4CC4)cc3Cl)CC2)cc1F` [Example 415, 4-((1-(2-chloro-4-cyclopropylbenzyl)piperidin-4-yl)methoxy)-5-cyclopropyl-2-fluoro-N-(methylsulfonyl)benzamide, trifluoroacetic acid salt]: the IC50 at hNav1.7 (setting [1]) was 6.1 nM.

These data come from US9546164B2 (GENENTECH, INC., priority 2013, dated 2017).
